Measurements as given in patent US20250145715A1, “B7-H3 TARGETING FUSION PROTEINS AND METHODS OF USE THEREOF” (GT Biopharma, Inc., priority 2021, published 2025).
“Also recorded” adds a separate entry of the source.

Experiments:
[1] = system: HNSCC cells (Cal27, Cal33); assay: IncuCyte 2D and 3D spheroid killing of HNSCC; type: cell-based, human; settings: 2D and 3D IncuCyte; E:T 5:1, 3 nM; irrespective of FANCA gene; vs B7-H3 single domain or IL-15 alone
Experimental: FIGS. 28A-28F illustrate real-time imaging assays. FIG. 28A is a graph showing Nuclight red-labeled Cal27 survival after incubation with NK cells at an E:T of 5:1 in different conditions: no treatment or 3 nM IL-15, B7-H3 SD and B7-H3 TriKE for 48 hours in an IncuCyte Zoom imager. […] FIG. 28C is a graph illustrating the size of the spheroid in FIG. 28B. FIG. 28D is a graph showing Nuclight red-labeled Cal33 survival after incubation with NK cells at an E:T of 5:1 in different conditions: no treatment or 3 nM IL-15, B7-H3 SD and B7-H3 TriKE for 48 hours in an IncuCyte Zoom imager. […] FIG. 28F is a graph illustrating the size of the spheroid in FIG. 28E.
NK cell responses against HNSCC lines in the presence of the B7-H3 TriKE were assessed through either flow cytometry based functional assays, to evaluate NK cell degranulation and cytokine secretion, or IncuCyte imaging assays, to directly assess target killing. […]
Enriched NK cells (N=4) were incubated with Nuclight red-labeled Cal27 at an E:T of 5:1 in different conditions: no treatment or 3 nM IL-15, B7-H3 SD and B7-H3 TriKE for 48 hours in an IncuCyte Zoom imager. Quantifications of percent live cells were done by normalizing hourly counts of red cells to targets alone at t=0. […] Quantifications of percent average red object area (live cells) were done by normalizing hourly counts of average red object area to targets alone at t=0. […]

[2] = system: NCI-H460 large cell lung cancer cells; assay: NK cell CD107a / IFNγ flow cytometry against NCI-H460; type: cell-based, human; settings: normal donor and lung cancer patient samples, vs controls
Description: FIGS. 24A-24F illustrate that B7-H3 TriKE enhances NK cell function against lung tumor targets. FIG. 24A is a graph showing pooled analysis of proportion of NK cells from healthy donors expressing CD107a+ against A549(N=6) tumor targets. FIG. 24B is a graph showing pooled analysis of proportion of NK cells from healthy donors expressing IFNγ against A549(N=6) tumor targets. FIG. 24C is a graph showing pooled analysis of proportion of NK cells from healthy donors expressing CD107a+ against NCI-H322 (N=5) tumor targets. FIG. 24D is a graph showing pooled analysis of proportion of NK cells from healthy donors expressing IFNγ against NCI-H322 (N=5) tumor targets. FIG. 24E is a graph showing pooled proportion of NK cells from healthy donors (black bars) or lung cancer patients (white bars) expressing CD107a+ against NCI-H460 (N=7). FIG. 24F is a graph showing pooled proportion of NK cells from healthy donors (black bars) or lung cancer patients (white bars) expressing IFNγ against NCI-H460 (N=7). ** p<0.01, *** p<0.001, and **** p<0.0001.
ADCC was measured in a flow cytometry assay by evaluating degranulation via CD107a (lysosomal-associated membrane protein LAMP-1) and intracellular IFNγ production. […] Samples were washed and evaluated in an LSRII flow cytometer (BD Biosciences, San Jose, CA, USA). […]

Substance: B7-H3 TriKE: camelid nanobodies targeting CD16 and B7-H3 joined by IL-15 and two linkers; sequence table equates the name with cam1615B7-H3
- HNSCC target cell killing by NK cells [1]: more HNSCC target cell killing; also recorded: induced NK cell killing against HNSCC

Substance: cam1615B7-H3: second-generation TriKE: humanized camelid anti-CD16 VHH, human wild-type IL-15, anti-B7-H3 mAb 376.96 scFv; SEQ ID NO:1
- NK cell function against NCI-H460 [2]: strongly increased NK cell function
